The subject of one assay is AB2.2 mouse ESCs. Description: TE contribution of mouse ESCs cultured in inhibitor combinations, injected to 8-cell host embryos. It counts as cell-based. To be noted: AB2.2 mouse ESCs cultured at least 5 passages, chimera blastocysts co-stained for mCherry and Cdx2. The source says: Mouse EPSCs were initially derived and maintained in the standard EPSCM that contains six inhibitors (see materials and methods). To determine the effects of individual inhibitors in EPSCM and to explore the possibility that fewer inhibitors might be sufficient for the expanded potential in mouse stem cells, we cultured AB2.2 mouse ESCs in various combinations of inhibitors, initially based on the 2i/LIF medium, for at least 5 passages before injected to 8-cell host embryos. The chimera blastocysts were co-stained for mCherry and Cdx2 for TE contribution.
Injections were carried out with a Nikon Eclipse TE2000-U inverted microscope unit. ESC/EPSC microinjection was performed at room temperature on the inverted lid of a 100-mm falcon culture dish in an injection drop of 1.0 ml M2 medium (Sigma) The embryo was injected with 6-8 cells per 8-cell stage embryo for bulk injection or 1 cell per embryo for single cell injection. After 45-50 embryos have been injected, the injected embryos were washed three times in KSOM (Millipore) containing 3.0 mg/ml BSA, Embryos were then transferred into a well of four-well plate containing 1.0 ml KSOM. After overnight culture, 20-25 injected embryos were transferred into both uterus of a foster recipient.

For the next assay, the system named is EPSCs. Description: EPSCM with other wnt inhibitor in place of XAV939. In kind it is cell-based.
The test system of a further assay is human EPSCs. Description: Culture and maintenance of human EPSCs. It counts as cell-based. The source says:
We also investigated whether human ESCs could survive and proliferate in EPSCM. H1 hESCs were maintained in standard FGF2 containing media on feeders. H1 cells survived culture in EPSCM and morphologically distinct 3-dimensional colonies emerged within one passage. Continued culture allowed establishment of a stable line which we called H1-EPSCs.
Human iPSC lines were also produced from human neural stem cells, and from human fetal or adult skin fibroblast cells using the six-factor reprogramming technology described in Wang et al (2011) and cultured for 2-3 weeks on feeders. The resulting iPSCs were switched to EPSCM and transgene free stable lines were established (EPSC-iPSCs). (FIG. 6). Stable human EPSC-iPSC lines have been passaged for over 30 passages in EPSCM.
We made several reporter EPSC lines that have a GFP or mCherry expression cassette at loci including Oct4, Sox2 and ROSA26. […] Importantly, these reporter cells provide a convenient way to assess the culture condition. […] However, we have also observed cases where EPSCM supplemented with fewer than six inhibitors has been able to obtain EPSCs. For example, where the EPSCM is supplemented with a chemically defined basal medium, such as Albumax II, it has been observed that fewer than six inhibitors are required obtain EPSCs. […]

Another assay relates to Jak/Stat pathway. Description: LIF response in ESCs and EPSCs. To be noted: adding LIF to EPSCs. It counts as cell-based, mouse. The procedure: For LIF stimulation, 1.0×10^6 cells were seeded in […] for 24 hours. Cells were washed with PBS and cultured in DMEM/F12/KSR for 4 hours, then LIF was supplemented at concentration of 0.0, 0.5, 1.0, 5.0 and 10.0 ng/ml for 30 minutes. Whole cell protein was extracted for Western blot using pSTAT3 (Cell signalling) and STAT3 (BD Biosciences) antibodies. α-Tubulin (Abcam) was used as loading control.
To analyse the expression of down-stream target genes of Jak-Stat3 and MAPK signalling at transcription level after LIF stimulation, both E14Tg2a ESCs and EPSCs were deprived of LIF for 4 hours as above, LIF 1.0 ng/ml was supplemented for 1 hour, total RNA was extracted and reverse transcribed to make cDNA. qPCR was performed using Taqman Gene Expression Assays (ABI)

On to `CN1CCN(C2CCC(n3cc(-c4ccc(Oc5ccccc5)cc4)c4c(N)ncnc43)CC2)CC1` (centres unmarked) [A419259], for which the “TE contribution on adding inhibitor to the 2i/LIF (2i) medium” value in the assay with AB2.2 mouse ESCs was “substantially increased TE contribution”. With `Cc1ccc2nc(NC(=O)CSc3nc4c(c(=O)n3-c3ccccc3)SCC4)sc2c1` [IWP-2], in the assay with EPSCs, the “use as the wnt inhibitor in EPSCM in place of XAV939” value is recorded as “successfully used”. With `CCOc1nc(NC(=O)Cc2cc(OC)ccc2OC)cc(N)c1C#N` [JNKi], the “effect of inhibitor absence on human EPSC culture” value with human EPSCs is given as “absence caused gradual deterioration”. For `Oc1nc(-c2ccc(C(F)(F)F)cc2)nc2c1CSCC2` [XAV939], in the assay with AB2.2 mouse ESCs, the “TE contribution on adding inhibitor to the 2i/LIF (2i) medium” value is reported as “substantially increased TE contribution”. For `Cc1cc(/C=C2\SC(=O)N(c3ccccc3)C2=O)c(C)n1-c1cccnc1` [iCRT 14], the “use as the wnt inhibitor in EPSCM in place of XAV939” value in the assay with EPSCs is reported as “successfully used”. As to `C[S+]([O-])c1ccc(-c2nc(-c3ccncc3)c(-c3ccc(F)cc3)[nH]2)cc1` (centres unmarked) [p38i], the “effect of inhibitor absence on human EPSC culture” value in the assay with human EPSCs was “absence caused gradual deterioration”. For “LIF: leukemia inhibitory factor, a cytokine”, in the assay with Jak/Stat pathway, the “expression of Jak/Stat downstream genes” value is listed as “upregulated expression of Jak/Stat downstream genes” and the “phosphorylation of Stat3” value is on record as “increased phosphorylation of Stat3”.

The values above are taken from patent US11913018B2, “In vitro production of expanded potential stem cells” (GENOME RESEARCH LIMITED, priority 2014, dated 2024).
